Results taken from patent US12171757B2, “Crenolanib for treating FLT3 mutated proliferative disorders” (Arog Pharmaceuticals, Inc., priority 2013, dated 2024).

Tests used:
[1] = tested on: refractory or relapsed acute leukemias; details: patients with refractory or relapsed acute leukemias; cited from earlier work
[2] = tested on: relapsed/refractory AML patient with an acquired FLT3-ITD mutation; experiment: Crenolanib besylate monotherapy, Example 4 patient, phase II clinical trial NCT01522469; type: in vivo, human
Excerpt: (§1) Response criteria for AML clinical trials are adapted from the International Working Group for AML. See Cheson et al. Revised Recommendations of the International Working Group for Diagnosis, Standardization of Response Criteria, Treatment Outcomes, and Reporting Standards for Therapeutic Trials in Acute Myeloid Leukemia. J Clin Oncol. 2003; 21: 4642-4649. Responders are patients who obtain a Complete Response (CR), Complete Response with incomplete blood count recovery (CRi), or Partial Remission (PR). Briefly, criteria are as follows:
A 60.6 kg person diagnosed with FLT3-negative AML January 2012. […] The patient was then treated with 4 cycles of high dose cytarabine consolidation therapy. […] The patient was treated with 100 mg of crenolanib besylate three times daily. […] The patient discontinued crenolanib therapy and underwent allogeneic stem cell transplant.

[3] = tested on: heavily pretreated relapsed/refractory AML patient with acquired FLT3-ITD and FLT3-D835 TKD mutations; experiment: Crenolanib besylate monotherapy, Example 3 patient, phase II clinical trial NCT01522469; type: in vivo, human
Excerpt: as §1
A 59.2 kg person diagnosed with AML December 2011. Following initial diagnosis the patient was treated with 7+3 induction chemotherapy, followed by consolidation therapy with 1 cycle of high dose cytarabine. Five months later the patient underwent autologous stem cell transplantation with etoposide and busulfan conditioning. […] The patient was treated with 100 mg of crenolanib besylate three times daily. […] The patient discontinued crenolanib therapy to undergo allogeneic stem cell transplantation conditioning. The patient discontinued crenolanib therapy and underwent allogeneic stem cell transplant.

[4] = tested on: relapsed/refractory AML patient with a de novo FLT3-ITD mutation and acquired FLT3-D835 TKD mutation; experiment: Crenolanib besylate single agent therapy, Example 1 patient, clinical trial NCT01522469; type: in vivo, human
Excerpt: as §1
To overcome resistance to prior therapy, the patient was provided single agent oral crenolanib besylate on a clinical trial for relapsed or refractory AML patients with a FLT3-D835 TKD mutation (NCT01522469). […] The patient began treatment with 100 mg of oral crenolanib three times daily. […] The patient discontinued crenolanib therapy and underwent allogeneic stem cell transplant.

[5] = tested on: relapsed/refractory AML patient with a de novo FLT3-ITD mutation and acquired FLT3-D835 TKD mutation; experiment: Crenolanib besylate single agent therapy, Example 2 patient, clinical trial NCT01522469; type: in vivo, human
Excerpt: as §1
To overcome resistance to prior therapy with FLT3 tyrosine kinase inhibitor X, the patient was provided single agent oral crenolanib besylate on a clinical trial for relapsed or refractory AML patients with a FLT3-D835 mutation (NCT01522469). At baseline, the patient presented with 91% bone marrow blasts and 4800 units/uL of absolute circulating peripheral blood blasts. The patient began treatment with 80 mg of oral crenolanib three times daily. […] The patient discontinued crenolanib therapy and underwent allogeneic stem cell transplant.

[6] = day 15 on study drug, 100 mg three times daily
[7] = day 29 on study drug, 100 mg three times daily
[8] = day 58 on study drug, 100 mg three times daily
[9] = day 33 on study drug, 100 mg three times daily
[10] = day 21 on study drug, 80 mg oral three times daily

CNC(=O)c1cc(Oc2ccc(NC(=O)Nc3ccc(Cl)c(C(F)(F)F)c3)cc2)ccn1 [sorafenib]
Effect on bone marrow (BM) blasts [1]: only modest BM blast reductions | Effect on peripheral blood (PB) blasts [1]: effective in clearing PB blasts

CC1(COc2ccc3c(c2)ncn3-c2ccc3cccc(N4CCC(N)CC4)c3n2)COC1 [Crenolanib, 4-Piperidinamine, 1-[2-[5-[(3-methyl-3-oxetanyl)methoxy]-1H-benzimidazol-1-yl]-8-quinolinyl]]
Days of therapy to complete clearance of malignant leukemic blasts in peripheral blood ([2]; 100 mg three times daily): 15 days | Clinical response (bone marrow biopsy) ([2]; after 29 days of therapy, 100 mg three times daily): complete remission with incomplete blood count recovery (CRi) | Absolute Peripheral Blast Count (cells/uL) ([2]; day 0 on study drug (baseline)): 198 cells/uL | Bone Marrow Blast (%) ([2]; day 0 on study drug (baseline)): 76% | Absolute Peripheral Blast Count (cells/uL) ([2]; day 1 on study drug, 100 mg three times daily): 130 cells/uL | Absolute Peripheral Blast Count (cells/uL) ([2]; day 8 on study drug, 100 mg three times daily): 19 cells/uL | Absolute Peripheral Blast Count (cells/uL) [2, 6]: 0 cells/uL | Absolute Peripheral Blast Count (cells/uL) ([2]; day 22 on study drug, 100 mg three times daily): 0 cells/uL | Absolute Peripheral Blast Count (cells/uL) [2, 7]: 0 cells/uL | Bone Marrow Blast (%) [2, 7]: 1% | Absolute Peripheral Blast Count (cells/uL) [2, 8]: 0 cells/uL | Bone Marrow Blast (%) [2, 8]: 1% | Days of therapy to complete clearance of malignant leukemic blasts in peripheral blood ([3]; 100 mg three times daily): 15 days | Clinical response (bone marrow biopsy) ([3]; after 33 days of therapy, 100 mg three times daily): complete remission with incomplete blood count recovery (CRi) | Absolute Peripheral Blast Count (units/uL) ([3]; day 0 on study drug (baseline)): 196 units/uL | Bone Marrow Blast (%) ([3]; day 0 on study drug (baseline)): 60-70% | Absolute Peripheral Blast Count (units/uL) ([3]; day 14 on study drug, 100 mg three times daily): 14 units/uL | Absolute Peripheral Blast Count (units/uL) [3, 6]: 0 units/uL | Absolute Peripheral Blast Count (units/uL) ([3]; day 16 on study drug, 100 mg three times daily): 0 units/uL | Absolute Peripheral Blast Count (units/uL) ([3]; day 17 on study drug, 100 mg three times daily): 0 units/uL | Absolute Peripheral Blast Count (units/uL) ([3]; day 18 on study drug, 100 mg three times daily): 0 units/uL | Bone Marrow Blast (%) ([3]; day 27 on study drug, 100 mg three times daily): 10% | Absolute Peripheral Blast Count (units/uL) ([3]; day 28 on study drug, 100 mg three times daily): 0 units/uL | Absolute Peripheral Blast Count (units/uL) [3, 7]: 0 units/uL | Absolute Peripheral Blast Count (units/uL) ([3]; day 31 on study drug, 100 mg three times daily): 0 units/uL | Absolute Peripheral Blast Count (units/uL) ([3]; day 32 on study drug, 100 mg three times daily): 0 units/uL | Absolute Peripheral Blast Count (units/uL) [3, 9]: 0 units/uL | Bone Marrow Blast (%) [3, 9]: 5% | Absolute Peripheral Blast Count (units/uL) ([3]; day 39 on study drug, 100 mg three times daily): 0 units/uL | Absolute Peripheral Blast Count (units/uL) ([3]; day 42 on study drug, 100 mg three times daily): 0 units/uL | Absolute Peripheral Blast Count (units/uL) ([3]; day 44 on study drug, 100 mg three times daily): 0 units/uL | Absolute Peripheral Blast Count (units/uL) ([3]; day 45 on study drug, 100 mg three times daily): 0 units/uL | Absolute Peripheral Blast Count (units/uL) ([3]; day 46 on study drug, 100 mg three times daily): 0 units/uL | Absolute Peripheral Blast Count (units/uL) ([3]; day 47 on study drug, 100 mg three times daily): 0 units/uL | Absolute Peripheral Blast Count (units/uL) ([3]; day 48 on study drug, 100 mg three times daily): 0 units/uL | Absolute Peripheral Blast Count (units/uL) ([3]; day 49 on study drug, 100 mg three times daily): 0 units/uL | Absolute Peripheral Blast Count (units/uL) ([3]; day 50 on study drug, 100 mg three times daily): 0 units/uL | Absolute Peripheral Blast Count (units/uL) ([3]; day 51 on study drug, 100 mg three times daily): 0 units/uL | Absolute Peripheral Blast Count (units/uL) ([3]; day 52 on study drug, 100 mg three times daily): 0 units/uL | Clinical response (bone marrow biopsy) ([4]; after 29 days of therapy, 100 mg, decreased to 80 mg, oral three times daily): complete remission (CR) | Bone Marrow Blast (%) ([4]; day 0 on study drug (baseline)): 75% | Bone Marrow Blast (%) ([4]; day 29 on study drug, 100 mg, decreased to 80 mg, oral three times daily): 0% | Bone Marrow Blast (%) ([4]; day 57 on study drug, 100 mg, decreased to 80 mg, oral three times daily): 1% | Days of therapy to complete clearance of malignant leukemic blasts in peripheral blood ([5]; 80 mg oral three times daily): 14 days | Bone Marrow Blast (%) ([5]; day 0 on study drug (baseline)): 91% | Absolute Peripheral Blast Count (units/uL) ([5]; day 1 on study drug (baseline value), 80 mg oral three times daily): 4800 units/uL | Absolute Peripheral Blast Count (units/uL) ([5]; day 3 on study drug, 80 mg oral three times daily): 2747 units/uL | Absolute Peripheral Blast Count (units/uL) ([5]; day 4 on study drug, 80 mg oral three times daily): 250 units/uL | Absolute Peripheral Blast Count (units/uL) ([5]; day 7 on study drug, 80 mg oral three times daily): 49 units/uL | Absolute Peripheral Blast Count (units/uL) ([5]; day 9 on study drug, 80 mg oral three times daily): 35 units/uL | Absolute Peripheral Blast Count (units/uL) ([5]; day 14 on study drug, 80 mg oral three times daily): 0 units/uL | Absolute Peripheral Blast Count (units/uL) [5, 10]: 0 units/uL | Bone Marrow Blast (%) [5, 10]: 32% | Absolute Peripheral Blast Count (units/uL) ([5]; day 28 on study drug, 80 mg oral three times daily): 0 units/uL | Bone Marrow Blast (%) ([5]; day 35 on study drug, 80 mg oral three times daily): 2% | Absolute Peripheral Blast Count (units/uL) ([5]; day 37 on study drug, 80 mg oral three times daily): 0 units/uL | Absolute Peripheral Blast Count (units/uL) ([5]; day 38 on study drug, 80 mg oral three times daily): 0 units/uL | Absolute Peripheral Blast Count (units/uL) ([5]; day 39 on study drug, 80 mg oral three times daily): 0 units/uL | Absolute Peripheral Blast Count (units/uL) ([5]; day 40 on study drug, 80 mg oral three times daily): 0 units/uL | Absolute Peripheral Blast Count (units/uL) ([5]; day 41 on study drug, 80 mg oral three times daily): 0 units/uL | Absolute Peripheral Blast Count (units/uL) ([5]; day 42 on study drug, 80 mg oral three times daily): 0 units/uL | Absolute Peripheral Blast Count (units/uL) ([5]; day 43 on study drug, 80 mg oral three times daily): 0 units/uL | Absolute Peripheral Blast Count (units/uL) ([5]; day 45 on study drug, 80 mg oral three times daily): 0 units/uL | Absolute Peripheral Blast Count (units/uL) ([5]; day 46 on study drug, 80 mg oral three times daily): 0 units/uL | Absolute Peripheral Blast Count (units/uL) ([5]; day 47 on study drug, 80 mg oral three times daily): 0 units/uL | Absolute Peripheral Blast Count (units/uL) ([5]; day 48 on study drug, 80 mg oral three times daily): 0 units/uL | Absolute Peripheral Blast Count (units/uL) ([5]; day 49 on study drug, 80 mg oral three times daily): 0 units/uL | Absolute Peripheral Blast Count (units/uL) ([5]; day 50 on study drug, 80 mg oral three times daily): 0 units/uL | Absolute Peripheral Blast Count (units/uL) ([5]; day 51 on study drug, 80 mg oral three times daily): 0 units/uL | Absolute Peripheral Blast Count (units/uL) ([5]; day 52 on study drug, 80 mg oral three times daily): 0 units/uL | Bone Marrow Blast (%) ([5]; day 65 on study drug, 80 mg oral three times daily): 4-5% | Absolute Peripheral Blast Count (units/uL) ([5]; day 69 on study drug, 80 mg oral three times daily): 0 units/uL | Clinical response (bone marrow biopsy) ([5]; over the course of 65 days of therapy, 80 mg oral three times daily): complete remission with incomplete blood count recovery (CRi)
